Assay results published in patent US10703748B2, “Diazanaphthalen-3-yl carboxamides and preparation and use thereof” (Samumed, LLC, priority 2017, dated 2020).

Assays:
IL-6 = IL-6 inhibition in LPS-stimulated human peripheral blood mononuclear cells (HTRF); conditions: Homo sapiens, PBMC; for EC50: 22 h; for inhibition at 10 µM: read-out: percentage in parentheses after EC50 >10
[1] = tested on: Wnt-responsive Sp5-Luc reporter in SW480 colon carcinoma cells; test: Screening assay for Wnt activity (Sp5-Luc reporter gene assay); conditions: Homo sapiens; for EC50: SW480; for inhibition at 10 µM: SW480, read-out: percent inhibition at 10 μM
[2] = tested on: α-smooth muscle actin (aSMA) positive LL29 cells; test: Inhibition of the fibrotic process: αSMA staining in TGF-β1 treated LL29 fibroblasts from IPF patients; conditions: Homo sapiens, Fibroblast; for EC50: 96 h; for inhibition at 10 µM: read-out: percentage in parentheses after EC50 >10
Procedure: Each compound was dissolved in DMSO as a 10 mM stock and used to prepare compound source plates. […] LL29 cells were plated at 1,500 cells/well in 70 μL/well F12 medium supplemented with 1% Fetal Bovine Serum. […] Wells treated with TGF-β1 and containing DMSO were used as positive control, and cells with only DMSO were negative control. Cells were incubated at 37° C. and 5% CO2 for 4 days. Following incubation for 4 days, SYTOX green nucleic acid stain (Life Technologies [Thermo Fisher Scientific]) was added to the wells at a final concentration of 1 μM and incubated at room temperature for 30 min. Cells were then fixed using 4% formaldehyde (Electron Microscopy Sciences), washed 3 times with PBS followed by blocking and permeabilization using 3% Bovine Serum Albumin (BSA; Sigma) and 0.3% Triton X-100 (Sigma) in PBS.

GSK3β kinase = GSK3β kinase (Homo sapiens, UniProt P49841); test: GSK3β kinase activity (Ser/Thr 09 peptide Z-lyte FRET assay); type: biochemical; conditions: recombinant kinase, 46 μM ATP, one hour at room temperature; read-out: EC50
[3] = tested on: secreted cytokines TNFα, IL-6 and KC-GRO; test: Secreted cytokines in Lipopolysaccharide-stimulated BV-2 cells (Table 9 does not say which cytokine); type: cell-based, mouse; conditions: Mus musculus, BV-2, 5 h; read-out: EC50
[4] = tested on: SW480 colon carcinoma cells; test: Cell viability assay (CellTiter-Glo); conditions: Homo sapiens; for EC50: SW480, 96 h; for inhibition at 10 µM: SW480, read-out: percent inhibition at 10 μM
DYRK1A kinase = DYRK1A kinase (Homo sapiens, UniProt Q13627); test: DYRK1A kinase activity (Ser/Thr 18 peptide Z-lyte FRET assay); type: biochemical; conditions: recombinant DYRK1A, 30 μM ATP, one hour at room temperature;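 also: kinase activity read as coumarin/fluorescein emission ratio after development step, with unphosphorylated and phosphorylated peptide forms setting 0% and 100% controls, values from dose-response curves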

GSK3β kinase, sequence (P49841 whole entry): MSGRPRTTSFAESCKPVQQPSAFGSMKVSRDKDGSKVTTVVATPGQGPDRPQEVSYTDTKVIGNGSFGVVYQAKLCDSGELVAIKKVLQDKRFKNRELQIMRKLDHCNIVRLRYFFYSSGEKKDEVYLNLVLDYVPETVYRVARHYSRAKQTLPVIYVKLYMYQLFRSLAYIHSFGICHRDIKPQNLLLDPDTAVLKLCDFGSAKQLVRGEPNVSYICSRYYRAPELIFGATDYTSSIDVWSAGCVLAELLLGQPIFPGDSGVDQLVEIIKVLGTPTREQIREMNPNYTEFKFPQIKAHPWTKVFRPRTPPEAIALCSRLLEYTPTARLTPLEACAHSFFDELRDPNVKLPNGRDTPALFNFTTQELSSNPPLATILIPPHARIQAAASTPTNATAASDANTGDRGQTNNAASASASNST

| Compound | EC50 (IL-6) | inhibition at 10 µM (IL-6) | EC50 [1] | EC50 [2] | EC50 (GSK3β kinase) | EC50 [3] | EC50 [4] | inhibition at 10 µM [4] | EC50 (DYRK1A kinase) | inhibition at 10 µM [1] | inhibition at 10 µM [2] |
| --- | --- | --- | --- | --- | --- | --- | --- | --- | --- | --- | --- |
| O=C(Nc1cc2nc(-c3cncs3)ccc2cn1)c1ccncc1 [Compound 625, N-(2-(Thiazol-5-yl)-1,6-naphthyridin-7-yl)isonicotinamide] | > 10 µM | 6.5% | 964 nM | 3010 nM | 8.27 µM | 130 nM | > 10 µM | 47.8% | 4 nM |  |  |
| Cc1ncc(-c2ccc3cnc(NC(=O)c4ccncc4)cc3n2)s1 [Compound 641, N-(2-(2-Methylthiazol-5-yl)-1,6-naphthyridin-7-yl)isonicotinamide] | > 10 µM | 16.4% | 977 nM | 347 nM | 2.56 µM | 433 nM | 1.68 µM |  | 8 nM |  |  |
| Cc1ncc(-c2ccc3cnc(NC(=O)c4cccnc4)cc3n2)s1 [Compound 642, N-(2-(2-Methylthiazol-5-yl)-1,6-naphthyridin-7-yl)nicotinamide] | > 10 µM | 22.4% | 869 nM | 988 nM | 3.06 µM | 1300 nM | 1.03 µM |  | 6 nM |  |  |
| Cc1ncc(-c2ccc3cnc(NC(=O)c4ccnc(N5CCN(C)CC5)c4)cc3n2)s1 [Compound 643, 2-(4-Methylpiperazin-1-yl)-N-(2-(2-methylthiazol-5-yl)-1,6-naphthyridin-7-yl)isonicotinamide] | 9.22 µM |  | 688 nM | 1430 nM | 8.56 µM | ≥ 10000 nM | 0.803 µM |  | 10 nM |  |  |
| Nc1cncc(-c2ccc3cnc(NC(=O)c4ccc(OC5CCNCC5)cc4)cc3n2)c1 [Compound 804, N-(2-(5-Aminopyridin-3-yl)-1,6-naphthyridin-7-yl)-4-(piperidin-4-yloxy)benzamide] | 1.59 µM |  | 289 nM | 482 nM | 4.68 µM | 104 nM | 0.272 µM |  | 2 nM |  |  |
| CN1CCN(c2cc(C(=O)Nc3cc4nc(-c5ccc(N)nc5)ccc4cn3)ccn2)CC1 [Compound 807, N-(2-(6-Aminopyridin-3-yl)-1,6-naphthyridin-7-yl)-2-(4-methylpiperazin-1-yl)isonicotinamide] | 4.2 µM |  | 484 nM | 1410 nM | > 10 µM | 265 nM | 0.86 µM |  | 7 nM |  |  |
| O=C(Nc1cc2nc(-c3cncc(NCC4(F)CNC4)n3)ccc2cn1)C1CC1 [Compound 871, N-(2-(6-(((3-Fluoroazetidin-3-yl)methyl)amino)pyrazin-2-yl)-1,6-naphthyridin-7-yl)cyclopropanecarboxamide] | 3.42 µM |  | > 10000 nM | 8050 nM | 0.36 µM | 306 nM | > 10 µM | 33.5% | 25 nM | 24.7% |  |
| O=C(Nc1cc2nc(-c3cncc(NC4CCNCC4)n3)ccc2cn1)C1CCOCC1 [Compound 877, N-(2-(6-(Piperidin-4-ylamino)pyrazin-2-yl)-1,6-naphthyridin-7-yl)tetrahydro-2H-pyran-4-carboxamide] | > 10 µM | 6.8% | > 10000 nM | > 10000 nM | 9.92 µM | 2700 nM | > 10 µM | 11.7% | 16 nM | 0% | 23.6% |
| CN1CCC(n2cc(C(=O)Nc3cc4nc(-c5cncc6[nH]ccc56)ccc4cn3)cn2)CC1 [Compound 896, N-(2-(1H-Pyrrolo[2,3-c]pyridin-4-yl)-1,6-naphthyridin-7-yl)-1-(1-methylpiperidin-4-yl)-1H-pyrazole-4-carboxamide] | 1.69 µM |  | 121 nM | 335 nM | > 10 µM | 266 nM | 0.109 µM |  | 5 nM |  |  |
| CN1CCN(c2cccc(C(=O)Nc3ncc4ccc(-c5cnn(C)c5)cc4n3)c2)CC1 [Compound 1047, N-(7-(1-Methyl-1H-pyrazol-4-yl)quinazolin-2-yl)-3-(4-methylpiperazin-1-yl) benzamide] | 3.71 µM |  | 573 nM | 1930 nM | 0.661 µM | 780 nM | 8.47 µM |  | 8 nM |  |  |
| CN1CCN(c2cc(C(=O)Nc3ncc4ccc(-c5cnn(C)c5)cc4n3)ccn2)CC1 [Compound 1054, N-(7-(1-Methyl-1H-pyrazol-4-yl)quinazolin-2-yl)-2-(4-methylpiperazin-1-yl) isonicotinamide] | 3.93 µM |  | 468 nM | 2340 nM | 3.65 µM | 1200 nM | 0.719 µM |  | 8 nM |  |  |
| CN1CCN(c2ccc(C(=O)Nc3ncc4ccc(-c5cnn(C)c5)cc4n3)cn2)CC1 [Compound 1058, N-(7-(1-Methyl-1H-pyrazol-4-yl)quinazolin-2-yl)-6-(4-methylpiperazin-1-yl)nicotinamide] | > 10 µM | 3% | 2150 nM | > 10000 nM | 3.13 µM | 286 nM | 9.43 µM |  | 9 nM |  | 8.8% |
| Cn1cc(-c2ccc3cnc(NC(=O)c4ccnc(OC5CCNCC5)c4)nc3c2)cn1 [Compound 1060, N-(7-(1-Methyl-1H-pyrazol-4-yl)quinazolin-2-yl)-2-(piperidin-4-yloxy)isonicotinamide] | > 10 µM | 4.9% | 3570 nM | > 10000 nM | > 10 µM | 280 nM | 6.96 µM |  | 27 nM |  | 28.6% |
| CN(C)CCNc1cc(C(=O)Nc2ncc3ccc(-c4cnn(C)c4)cc3n2)ccn1 [Compound 1071, 2-((2-(Dimethylamino)ethyl)amino)-N-(7-(1-methyl-1H-pyrazol-4-yl)quinazolin-2-yl)isonicotinamide] | > 10 µM | 11.8% | 1530 nM | 6840 nM | > 10 µM | 1800 nM | 3.47 µM |  | 10 nM |  |  |
| CN(C)Cc1ccc(C(=O)Nc2ncc3ccc(-c4cnn(C)c4)cc3n2)cc1 [Compound 1077, 4-((Dimethylamino)methyl)-N-(7-(1-methyl-1H-pyrazol-4-yl)quinazolin-2-yl)benzamide] | 9.2 µM |  | 1080 nM | 3920 nM | 4.14 µM | 203 nM | 3.4 µM |  | 16 nM |  |  |
| CN1CCN(Cc2cccc(C(=O)Nc3ncc4ccc(-c5cnn(C)c5)cc4n3)c2)CC1 [Compound 1079, N-(7-(1-Methyl-1H-pyrazol-4-yl)quinazolin-2-yl)-3-((4-methylpiperazin-1-yl)methyl)benzamide] | > 10 µM | 12.7% | 1000 nM | > 10000 nM | 9.74 µM | 1400 nM | 3.39 µM |  | 19 nM |  | 14.3% |
| CN1CCc2ccc(C(=O)Nc3ncc4ccc(-c5cnn(C)c5)cc4n3)cc2C1 [Compound 1109, 2-Methyl-N-(7-(1-methyl-1H-pyrazol-4-yl)quinazolin-2-yl)-1,2,3,4-tetrahydroisoquinoline-7-carboxamide] | > 10 µM | 6.3% | 1920 nM | > 10000 nM | > 10 µM | 349 nM | 9.48 µM |  | 18 nM |  | 16.4% |
| Cn1cc(-c2ccc3cnc(NC(=O)c4ccc5ccoc5c4)nc3c2)cn1 [Compound 1116, N-(7-(1-Methyl-1H-pyrazol-4-yl)quinazolin-2-yl)benzofuran-6-carboxamide] | > 10 µM | 3.8% | 791 nM | 2720 nM | > 10 µM | 960 nM | 3.03 µM |  | 15 nM |  |  |
| Cn1cc(-c2ccc3cnc(NC(=O)c4ccc5nccnc5c4)nc3c2)cn1 [Compound 1123, N-(7-(1-Methyl-1H-pyrazol-4-yl)quinazolin-2-yl)quinoxaline-6-carboxamide] | > 10 µM | 6.5% | 1960 nM | > 10000 nM | 4.8 µM | 1000 nM | 6.12 µM |  | 13 nM |  | 22% |
| CN1CCC(n2cc(C(=O)Nc3ncc4ccc(-c5cnn(C)c5)cc4n3)cn2)CC1 [Compound 1136, N-(7-(1-Methyl-1H-pyrazol-4-yl)quinazolin-2-yl)-1-(1-methylpiperidin-4-yl)-1H-pyrazole-4-carboxamide] | 3.2 µM |  | 323 nM | 1460 nM | 2.53 µM | 554 nM | 2.91 µM |  | 13 nM |  |  |
| CC(C)OC(=O)N1CCC(n2cc(C(=O)Nc3ncc4ccc(-c5cnn(C)c5)cc4n3)cn2)CC1 [Compound 1141, Isopropyl 4-(4-((7-(1-methyl-1H-pyrazol-4-yl)quinazolin-2-yl)carbamoyl)-1H-pyrazol-1-yl)piperidine-1-carboxylate] | 3.13 µM |  | 414 nM | 1390 nM | 4.06 µM | 177 nM | 0.717 µM |  | 8 nM |  |  |
